Test results: ChEMBL document CHEMBL5055643, “Sophoraflavanone G Resensitizes ABCG2-Overexpressing Multidrug-Resistant Non-Small-Cell Lung Cancer Cells to Chemotherapeutic Drugs” (J Nat Prod, 2021)

How the values were obtained:
ABCG2 [1] = assay: Resistance factor, ratio of IC50 for mitoxantrone-selected ABCG2-overexpressing human NCI-H460/MX20 cells to IC50 for human NCI-H460 cells; assay type: ADME; conditions: read-out: Ratio IC50
NCI-H460 [2] = assay: Chemo-sensitizing activity against human NCI-H460 cells assessed as reversal fold at 2 uM measured after 72 hrs in presence of mitoxantrone by CCK8 assay relative to control; assay type: functional
NCI-H460 [3] = assay: Chemo-sensitizing activity against mitoxantrone-selected ABCG2-overexpressing human NCI-H460/MX20 cells assessed as reversal fold at 1 uM measured after 72 hrs in presence of mitoxantrone by CCK8 assay relative to control; assay type: functional
NCI-H460 [4] = assay: Chemo-sensitizing activity against human NCI-H460 cells assessed as reversal fold at 1 uM measured after 72 hrs in presence of topotecan by CCK8 assay relative to control; assay type: functional
NCI-H460 [5] = assay: Chemo-sensitizing activity against human NCI-H460 cells assessed as reversal fold at 5 uM measured after 72 hrs in presence of topotecan by CCK8 assay relative to control; assay type: functional
NCI-H460 [6] = assay: Chemo-sensitizing activity against mitoxantrone-selected ABCG2-overexpressing human NCI-H460/MX20 cells assessed as reversal fold at 2 uM measured after 72 hrs in presence of topotecan by CCK8 assay relative to control; assay type: functional
NCI-H460 [7] = assay: Chemo-sensitizing activity against mitoxantrone-selected ABCG2-overexpressing human NCI-H460/MX20 cells assessed as reversal fold at 5 uM measured after 72 hrs in presence of topotecan by CCK8 assay relative to control; assay type: functional
NCI-H460 [8] = assay: Chemo-sensitizing activity against human NCI-H460 cells assessed as reversal fold at 5 uM measured after 72 hrs in presence of SN-38 by CCK8 assay relative to control; assay type: functional
NCI-H460 [9] = assay: Chemo-sensitizing activity against mitoxantrone-selected ABCG2-overexpressing human NCI-H460/MX20 cells assessed as reversal fold at 2 uM measured after 72 hrs in presence of SN-38 by CCK8 assay relative to control; assay type: functional
A549 [10] = assay: Chemo-sensitizing activity against human A549 cells assessed as reversal fold at 2 uM measured after 72 hrs in presence of mitoxantrone by CCK8 assay relative to control; assay type: functional
A549 [11] = assay: Chemo-sensitizing activity against human A549 cells assessed as reversal fold at 2 uM measured after 72 hrs in presence of SN-38 by CCK8 assay relative to control; assay type: functional
A549 [12] = assay: Chemo-sensitizing activity against human A549 cells assessed as reversal fold at 5 uM measured after 72 hrs in presence of SN-38 by CCK8 assay relative to control; assay type: functional
A549 [13] = assay: Chemo-sensitizing activity against becatecarin-selected ABCG2-overexpressing human A549/Bec150 cells assessed as reversal fold at 1 uM measured after 72 hrs in presence of SN-38 by CCK8 assay relative to control; assay type: functional
HEK293 [14] = assay: Chemo-sensitizing activity against human HEK293 cells assessed as reversal fold at 1 uM measured after 72 hrs in presence of SN-38 by CCK8 assay relative to control; assay type: functional
OVCAR-8 [15] = assay: Chemo-sensitizing activity against human OVCAR-8 cells assessed as reversal fold at 5 uM measured after 72 hrs in presence of vincristine by CCK8 assay relative to control; assay type: functional
OVCAR-8 [16] = assay: Chemo-sensitizing activity against human OVCAR-8 cells assessed as reversal fold at 2 uM measured after 72 hrs in presence of colchicine by CCK8 assay relative to control; assay type: functional
NCI/ADR-RES = assay: Chemo-sensitizing activity against ABCB1-overexpressing human NCI/ADR-RES cells assessed as reversal fold at 5 uM measured after 72 hrs in presence of colchicine by CCK8 assay relative to control; assay type: functional
KB 3-1 [17] = assay: Chemo-sensitizing activity against human KB 3-1 cells assessed as reversal fold at 5 uM measured after 72 hrs in presence of vincristine by CCK8 assay relative to control; assay type: functional
KB 3-1 [18] = assay: Chemo-sensitizing activity against human KB 3-1 cells assessed as reversal fold at 1 uM measured after 72 hrs in presence of paclitaxel by CCK8 assay relative to control; assay type: functional
KB 3-1 [19] = assay: Chemo-sensitizing activity against human KB 3-1 cells assessed as reversal fold at 2 uM measured after 72 hrs in presence of colchicine by CCK8 assay relative to control; assay type: functional
HEK293 [20] = assay: Chemo-sensitizing activity against human HEK293 cells assessed as reversal fold at 5 uM measured after 72 hrs in presence of vincristine by CCK8 assay relative to control; assay type: functional
HEK293 [21] = assay: Chemo-sensitizing activity against human HEK293 cells assessed as reversal fold at 5 uM measured after 72 hrs in presence of paclitaxel by CCK8 assay relative to control; assay type: functional
HEK293 [22] = assay: Chemo-sensitizing activity against ABCB1-overexpressing human HEK293/MDR19 cells assessed as reversal fold at 2 uM measured after 72 hrs in presence of paclitaxel by CCK8 assay relative to control; assay type: functional
HEK293 [23] = assay: Chemo-sensitizing activity against human HEK293 cells assessed as reversal fold at 2 uM measured after 72 hrs in presence of colchicine by CCK8 assay relative to control; assay type: functional
ABCG2 [24] = molecular target: T1, ABCG2 (Homo sapiens, UniProt Q9UNQ0); assay: Inhibition of ABCG2 in mitoxantrone-selected ABCG2-overexpressing human NCI-H460/MX20 cells assessed as increase in intracellular mitoxantrone accumulation at 20 uM incubated for 1 hr in presence of mitoxantrone by flow cytometry; assay type: cell-based; conditions: probe mitoxantrone
T1 sequence (Q9UNQ0 whole entry): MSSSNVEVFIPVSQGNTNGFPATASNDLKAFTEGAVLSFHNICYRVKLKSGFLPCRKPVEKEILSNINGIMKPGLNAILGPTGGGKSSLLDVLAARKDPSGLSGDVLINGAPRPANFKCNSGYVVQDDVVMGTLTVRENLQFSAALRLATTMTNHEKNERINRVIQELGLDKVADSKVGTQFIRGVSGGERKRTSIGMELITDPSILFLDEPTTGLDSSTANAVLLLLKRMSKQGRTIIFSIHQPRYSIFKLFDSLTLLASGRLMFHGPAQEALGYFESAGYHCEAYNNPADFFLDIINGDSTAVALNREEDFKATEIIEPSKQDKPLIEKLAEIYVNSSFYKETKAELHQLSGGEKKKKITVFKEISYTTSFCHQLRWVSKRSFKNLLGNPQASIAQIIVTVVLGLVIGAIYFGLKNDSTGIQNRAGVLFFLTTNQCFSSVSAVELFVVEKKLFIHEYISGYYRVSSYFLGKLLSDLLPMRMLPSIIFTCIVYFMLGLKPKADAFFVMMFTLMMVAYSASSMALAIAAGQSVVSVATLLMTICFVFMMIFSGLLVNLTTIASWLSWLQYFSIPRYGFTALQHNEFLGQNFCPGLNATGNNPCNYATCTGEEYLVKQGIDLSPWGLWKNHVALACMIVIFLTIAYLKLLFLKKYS

[25] = Cytotoxicity against human NCI-H460 cells assessed as cell viability at 1 to 5 uM measured after 72 hrs by CCK8 assay; assay type: cell-based; conditions: dose 1-5 µM, read-out: Activity
[26] = Cytotoxicity against human HEK293 cells assessed as cell viability at 1 to 5 uM measured after 72 hrs by CCK8 assay; assay type: cell-based; conditions: dose 1-5 µM, read-out: Activity

## C=C(C)[C@H](CC=C(C)C)Cc1c(O)cc(O)c2c1O[C@H](c1ccc(O)cc1O)CC2=O [SOPHORAFLAVANONE G]
ABCG2 [1]
  selectivity ratio: 0.8
NCI-H460 [2]
  fold change (FC): 2.4
NCI-H460 [3]
  fold change (FC): 1.9
NCI-H460 [4]
  fold change (FC): 1.6
NCI-H460 [5]
  fold change (FC): 3
NCI-H460 [6]
  fold change (FC): 7.2
NCI-H460 [7]
  fold change (FC): 7.8
NCI-H460 [8]
  fold change (FC): 2.8
NCI-H460 [9]
  fold change (FC): 3.7
A549 [10]
  fold change (FC): 1.6
A549 [11]
  fold change (FC): 1.1
A549 [12]
  fold change (FC): 1.2
A549 [13]
  fold change (FC): 1.7
HEK293 [14]
  fold change (FC): 1
OVCAR-8 [15]
  fold change (FC): 1.7
OVCAR-8 [16]
  fold change (FC): 1
NCI/ADR-RES
  fold change (FC): 0.7
KB 3-1 [17]
  fold change (FC): 1.7
KB 3-1 [18]
  fold change (FC): 0.9
KB 3-1 [19]
  fold change (FC): 1.1
HEK293 [20]
  fold change (FC): 0.9
HEK293 [21]
  fold change (FC): 1.2
HEK293 [22]
  fold change (FC): 1.2
HEK293 [23]
  fold change (FC): 0.9
ABCG2 [24]
  inhibition at 1 h, 20 µM: 100%
[25]
  viability at 72 h, 5 µM: > 90%
[26]
  viability at 72 h, 5 µM: > 90%
